From article PMC4737989 (European journal of medicinal chemistry, 2016)
One block for each compound: values may come before it.

Columns and labels:
[1] = test system: HEK293T cells; conditions: treated HEK293 cells, Cell-TiterGlo
[2] = test system: VDR; conditions: cited from earlier work
[3] = molecular target: T1, PPARα-Gal4 (Homo sapiens, UniProt Q07869); assay type: cell-based; conditions: HEK293 cells, luminescence
T1 sequence (Q07869 1-468): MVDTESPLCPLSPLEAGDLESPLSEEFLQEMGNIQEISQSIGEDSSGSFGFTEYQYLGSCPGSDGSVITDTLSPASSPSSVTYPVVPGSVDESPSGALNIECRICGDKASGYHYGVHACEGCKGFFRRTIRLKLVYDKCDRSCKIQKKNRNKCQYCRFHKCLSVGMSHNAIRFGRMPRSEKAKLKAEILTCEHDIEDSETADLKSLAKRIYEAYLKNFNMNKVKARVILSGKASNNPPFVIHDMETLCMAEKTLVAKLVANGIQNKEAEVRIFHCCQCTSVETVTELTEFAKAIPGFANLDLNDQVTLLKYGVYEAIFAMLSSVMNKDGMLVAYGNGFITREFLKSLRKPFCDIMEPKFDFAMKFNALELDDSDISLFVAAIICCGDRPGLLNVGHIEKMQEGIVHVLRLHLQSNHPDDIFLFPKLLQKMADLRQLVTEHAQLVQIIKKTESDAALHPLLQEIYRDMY

[4] = molecular target: T2, VP16-VDR-LBD / SRC1-GAL4 (Homo sapiens, UniProt P11473); assay: Two-hybrid assay in HEK293T cells, inhibition in the presence of 10 nM 1,25; assay type: cell-based; conditions: 10 nM 1,25(OH)2D3
T2 sequence (P11473 127-423 limits assumed): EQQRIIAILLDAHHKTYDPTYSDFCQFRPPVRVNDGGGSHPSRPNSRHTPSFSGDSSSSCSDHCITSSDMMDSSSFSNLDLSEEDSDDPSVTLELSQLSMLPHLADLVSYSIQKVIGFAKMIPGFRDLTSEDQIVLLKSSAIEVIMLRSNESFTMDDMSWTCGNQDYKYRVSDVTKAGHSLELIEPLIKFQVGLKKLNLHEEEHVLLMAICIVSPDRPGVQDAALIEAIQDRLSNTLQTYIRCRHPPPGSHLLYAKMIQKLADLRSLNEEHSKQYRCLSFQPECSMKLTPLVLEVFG

[5] = molecular target: T3, VDR-LBD / Alexa Fluor-SRC2-3 coactivator peptide (Homo sapiens, UniProt P11473, DEL165-215); assay: VDR-coactivator binding fluorescence polarization assay, agonistic binding; conditions: without LG190178
T3 sequence (P11473 with tags, fused parts or gaps DEL165-215 limits assumed): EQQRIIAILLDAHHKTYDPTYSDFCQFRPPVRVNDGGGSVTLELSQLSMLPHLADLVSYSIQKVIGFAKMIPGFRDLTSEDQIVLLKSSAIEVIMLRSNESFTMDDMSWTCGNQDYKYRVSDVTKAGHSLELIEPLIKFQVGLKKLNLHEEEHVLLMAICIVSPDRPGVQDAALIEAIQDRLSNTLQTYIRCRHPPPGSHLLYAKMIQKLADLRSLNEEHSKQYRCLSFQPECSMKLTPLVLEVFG

[6] = molecular target: T3, VDR-LBD / Alexa Fluor-SRC2-3 coactivator peptide; assay: VDR-coactivator binding fluorescence polarization assay, competitive inhibition
[7] = test system: VDR target gene CYP24A1; assay: CYP24A1 gene regulation in DU145 cells by qRT-PCR; assay type: cell-based; conditions: 7.5 μM, with 20 nM 1,25(OH)2D3, 18 hours
[8] = molecular target: T2, VP16-VDR-LBD / SRC1-GAL4; assay: Two-hybrid assay in HEK293T cells, agonist mode; assay type: cell-based

SMILES: C[C@H](CCC(=O)O)[C@H]1CC[C@H]2[C@@H]3[C@@H](O)C[C@@H]4C[C@H](O)CC[C@]4(C)[C@H]3CC[C@]12C [UDCA, ursodeoxycholic acid]
Toxicity LD50 [1]: >150 µM

SMILES: C[C@H](CCC(=O)O)[C@H]1CC[C@H]2[C@@H]3CC[C@@H]4C[C@H](O)CC[C@]4(C)[C@H]3CC[C@]12C [LCA, lithocholic acid]
Reported cellular activity [2]: approximately 10 μM

SMILES: C[C@H](CCC(=O)O)[C@H]1CC[C@H]2[C@@H]3CC[C@@H]4C[C@H](O[C@@H]5O[C@H](C(=O)O)[C@@H](O)[C@H](O)[C@H]5O)CC[C@]4(C)[C@H]3CC[C@]12C [LCA Gluc I, lithocholic acid glucuronide I]
Activation of transcription for the PPARα-Gal4 system [3]: no activation of transcription
Inhibition of VDR-SRC1 binding in the presence of 1,25(OH)2D3 (in words) [4]: no inhibition

SMILES: CC(=O)O[C@@H]1CC[C@@]2(C)[C@H](CC[C@@H]3[C@@H]2CC[C@]2(C)[C@@H]([C@H](C)CCC(=O)O)CC[C@@H]32)C1 [LCA Acetate]
VDR-LBD recruitment of SRC2-3 coactivator peptide (in words) [5]: not able to support
Inhibition of VDR-SRC1 binding in the presence of 1,25(OH)2D3 (in words) [4]: No inhibition

SMILES: C[C@H](CCC(=O)O)[C@H]1CC[C@H]2[C@@H]3[C@H](O)C[C@@H]4C[C@H](O)CC[C@]4(C)[C@H]3CC[C@]12C [CDCA, chenodeoxycholic acid]
Toxicity LD50 [1]: >150 µM

VDR-LBD recruitment of SRC2-3 coactivator peptide (in words) [5]: not able to support
Potency of VDR-SRC2-3 inhibition relative to LCA ([6]; ratio of IC50 values): approximately six times more potent
SMILES: C=C1/C(=C\C=C2/CCC[C@]3(C)[C@@H]([C@H](C)CC(=O)O)CC[C@@H]23)C[C@@H](O)C[C@@H]1O [Calcitroic Acid, calcitroic acid]

SMILES: C[C@H](CCC(=O)O[C@@H]1O[C@H](C(=O)O)[C@@H](O)[C@H](O)[C@H]1O)[C@H]1CC[C@H]2[C@@H]3CC[C@@H]4C[C@H](O)CC[C@]4(C)[C@H]3CC[C@]12C [LCA Gluc II, lithocholic acid glucuronide II]
Induction of CYP24A1 in the presence of 1,25(OH)2D3 (in words) [7]: more pronounced
Activation of transcription for the PPARα-Gal4 system [3]: no activation of transcription
Inhibition of VDR-SRC1 binding in the presence of 1,25(OH)2D3 (in words) [4]: no inhibition

SMILES: COC(=O)CC[C@@H](C)[C@H]1CC[C@H]2[C@@H]3CC[C@@H]4C[C@H](O)CC[C@]4(C)[C@H]3CC[C@]12C [LCME, lithocholic acid methyl ester]
VDR-LBD recruitment of SRC2-3 coactivator peptide (in words) [5]: not able to support
Activation in the cellular VDR-SRC1 2-hybrid assay (in words) [8]: did not activate transcription
Inhibition of VDR-SRC2-3 binding (in words) ([6]; fluorescence polarization, with LG190178): inactive
